Results on 1 compound are retold here after ChEMBL document CHEMBL2073831, “Biliary transport of irinotecan and metabolites in normal and P-glycoprotein-deficient mice” (Cancer Chemother Pharmacol, 2002).

The target in this data set is P-glycoprotein 1 and 3 (MDR1a/MDR1b) (Mus musculus, UniProt P21447+P06795). Briefly: TP_TRANSPORTER: decrease in biliary excretion in mdr1a/1b(-/-) mouse. The format is functional, organism-based, Bile. The following applies: in vivo.

For the compound `CCc1c2c(nc3ccc(OC(=O)N4CCC(N5CCCCC5)CC4)cc13)-c1cc3c(c(=O)n1C2)COC(=O)[C@]3(O)CC` [IRINOTECAN], the Activity entry was “substrate [+]”.
